Laboratory results published in article PMC7587432, “IP7-SPX Domain Interaction Controls Fungal Virulence by Stabilizing Phosphate Signaling Machinery” (mBio, 2020).

Target: T1, Pho81 (Pho81SPX-GFP; CnPho81) (Cryptococcus neoformans, UniProt J9VLD1)
T1 construct: gene CNAG_02541; full-length Pho81 (N-terminal SPX, ankyrin repeat and GDE domains) with C-terminal GFP, expressed from the GDE2 promoter in C. neoformans H99; whole cell lysate, endogenous Pho80/Pho85/Pcl6/7 present
Test: affinity capture from cell lysate on 5-PCP-IP5-conjugated resin, anti-GFP Western blot
Type: biochemical
Settings: binds; resin-immobilised analog of 5-PP-IP5; Pi-conjugated resin as control; 50 mM Tris pH 7.5, 150 mM NaCl, 1 mM EDTA, 4 °C, 2 h; SPX domain lysine surface cluster

## O=P(O)(O)CP(=O)(O)O[C@H]1[C@H](OP(=O)(O)O)[C@@H](OP(=O)(O)O)[C@@H](OP(=O)(O)O)[C@@H](OP(=O)(O)O)[C@@H]1OP(=O)(O)O [5-PCP-IP5]
  affinity capture from cell lysate on 5-PCP-IP5-conjugated resin, anti-GFP Wester: native Pho81 binds to the 5-PCP-IP5, but not to the Pi, resin
